Activity calls are given as the source filed them. No cut-off for these calls is given here.
Key:
SH-SY5Y [1] = assay: Neuroprotective activity against glutamate induced toxicity in human SH-SY5Y cells at low concentration preincubated for 1 hr with compound followed by co-incubation with glutamate and measured after 24 hrs by MTT assay; assay type: functional, cell-based; conditions: time 25.0 hrs
SH-SY5Y [2] = assay: Neuroprotective activity against Abeta1-42 induced toxicity in human SH-SY5Y cells at 1 to 5 uM preincubated for 1 hr with compound followed by co-incubation with Abeta1-42 and measured after 24 hrs by MTT assay; assay type: functional, cell-based; conditions: dose 1-5 µM, time 25.0 hrs
[3] = MRT infinity in Sprague-Dawley rat at 10 mg/kg, iv measured upto 1440 mins by LC/MS/MS analysis; assay type: ADME, organism-based; conditions: in vivo
Mus musculus [4] = assay: Neuroprotective activity against Abeta42 induced cognition impairement in AD ICR mouse model assessed as increase in ghrelin level in mouse plasma administered as oral dose for 21 days; assay type: functional, organism-based; conditions: time 21.0 day
[5] = Ratio of drug exposure in plasma to brain in ICR mouse measured after 480 mins by LC/MS/MS analysis; assay type: ADME, cell-free; conditions: in vivo, 8 h
[6] = AUC (0 to t) in Sprague-Dawley rat at 10 mg/kg, po measured upto 1440 mins by LC/MS/MS analysis; assay type: ADME, organism-based; parameters: time < 1440 min, dose 10 mg/kg, route po; conditions: in vivo
[7] = Cmax in ICR mouse plasma administered as oral dose by LC/MS/MS analysis; assay type: ADME; parameters: route po
[8] = AUC (0 to infinity) in Sprague-Dawley rat at 10 mg/kg, iv measured upto 1440 mins by LC/MS/MS analysis; assay type: ADME, organism-based; parameters: dose 10 mg/kg, time < 1440 min, route iv; conditions: Sprague-Dawley, in vivo
BV-2 = assay: Induction of antioxidant effect in mouse BV-2 cells assessed as prevention of LPS-induced ROS production preincubated for 1 hr with compound followed by LPS stimulation and measured after 24 hrs by DCFH-DA staining based inverted fluorescence microscopy analysis; assay type: functional, cell-based; conditions: time 25.0 hrs
[9] = Ratio of drug exposure in plasma to brain in ICR mouse measured after 30 mins by LC/MS/MS analysis; assay type: ADME, cell-free; conditions: in vivo, 0.5 h
PC-12 [10] = assay: Cytotoxicity against rat PC12 cells assessed as survival rate at 100 uM measured after 24 hrs by MTT assay relative to control; conditions: PC-12, 24 h, read-out: Survival
PC-12 [11] = assay: Cytoprotective activity against H2O2 induced cell damage in rat PC12 cells at 10 to 20 uM preincubated for 1 hr with compound followed by co-incubation with H2O2 and measured after 24 hrs by MTT assay; assay type: functional, cell-based; conditions: dose 10-20 µM, time 25.0 hrs
[12] = Acute toxicity in overnight fasted female ICR mouse assessed as abnormal behavior at 1 g/Kg, IG administered as single dose measured upto 15 days; conditions: in vivo, po, 1000 mg/kg, 360 h, time < 15 day
Cholinesterase [13] = target: Cholinesterase (Equus caballus, UniProt P81908); assay: Inhibition of equine serum BuChE using butyrylthiocholine iodide as substrate incubated for 10 mins followed by substrate addition by DTNB-reagent based Ellman's colorimetric assay
Cholinesterase (Equus caballus, UniProt P81908), sequence (P81908 whole entry): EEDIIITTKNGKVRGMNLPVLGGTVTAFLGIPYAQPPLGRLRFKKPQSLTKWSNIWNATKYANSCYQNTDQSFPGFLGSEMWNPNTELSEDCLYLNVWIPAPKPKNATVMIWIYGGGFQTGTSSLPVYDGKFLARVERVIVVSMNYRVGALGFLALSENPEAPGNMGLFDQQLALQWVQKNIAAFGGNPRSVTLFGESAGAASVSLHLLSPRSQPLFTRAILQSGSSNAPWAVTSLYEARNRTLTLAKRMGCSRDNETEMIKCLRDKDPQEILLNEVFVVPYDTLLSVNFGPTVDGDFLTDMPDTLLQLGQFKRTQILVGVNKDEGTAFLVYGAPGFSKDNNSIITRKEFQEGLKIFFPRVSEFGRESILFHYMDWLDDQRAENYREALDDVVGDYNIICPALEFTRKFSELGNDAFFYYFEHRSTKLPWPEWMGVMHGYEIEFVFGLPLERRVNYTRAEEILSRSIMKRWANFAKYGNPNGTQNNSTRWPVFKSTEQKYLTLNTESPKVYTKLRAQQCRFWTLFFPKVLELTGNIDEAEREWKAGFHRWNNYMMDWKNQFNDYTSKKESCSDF

[14] = Metabolic stability in human liver microsomes assessed as parent compound remaining at 1 uM incubated upto 50 mins in presence of NADPH by LC/MS/MS analysis; assay type: ADME, Microsome; conditions: read-out: Stability
[15] = AUC (0 to infinity) in Sprague-Dawley rat at 10 mg/kg, po measured upto 1440 mins by LC/MS/MS analysis; assay type: ADME, organism-based; parameters: dose 10 mg/kg, time < 1440 min, route po; conditions: in vivo
SH-SY5Y [16] = assay: Induction of antioxidant effect in human SH-SY5Y cells assessed as prevention of Abeta1-42 induced ROS production preincubated for 1 hr with compound followed by Abeta1-42 stimulation and measured after 24 hrs by DCFH-DA staining based inverted fluorescence microscopy analysis; assay type: functional, cell-based; conditions: time 25.0 hrs
SH-SY5Y [17] = assay: Cytotoxicity against human SH-SY5Y cells assessed as survival rate at 100 uM measured after 24 hrs by MTT assay relative to control; assay type: functional; conditions: read-out: Survival
[18] = Ratio of drug exposure in plasma to brain in ICR mouse measured after 60 mins by LC/MS/MS analysis; assay type: ADME, cell-free; conditions: in vivo, 1 h
[19] = Acute toxicity in overnight fasted male ICR mouse assessed as body weight loss at 1 g/Kg, IG administered as single dose measured upto 15 days; conditions: in vivo, po, 1000 mg/kg, 360 h, time < 15 day
[20] = Acute toxicity in overnight fasted female ICR mouse assessed as body weight loss at 1 g/Kg, IG administered as single dose measured upto 15 days; conditions: in vivo, po, 1000 mg/kg, 360 h, time < 15 day
[21] = Ratio of drug exposure in plasma to brain in ICR mouse measured after 10 mins by LC/MS/MS analysis; assay type: ADME, cell-free; conditions: in vivo
[22] = Oral bioavailability in Sprague-Dawley rat at 10 mg/kg measured upto 1440 mins by LC/MS/MS analysis; assay type: ADME, organism-based; conditions: in vivo
Mus musculus [23] = assay: Neuroprotective activity against Abeta42 induced cognition impairement in AD mouse model assessed as reduction in confusion of escape trajectory at 10 mg/kg, po measured after 14 days; assay type: functional, organism-based; conditions: time 14.0 day
[24] = Half life in Sprague-Dawley rat at 10 mg/kg, iv measured upto 1440 mins by LC/MS/MS analysis; assay type: ADME, organism-based; conditions: in vivo
[25] = AUC (0 to t) in ICR mouse plasma administered as oral dose by LC/MS/MS analysis; assay type: ADME; parameters: route po
[26] = Ratio of AUCt in ICR mouse brain to AUCt in ICR mouse plasma; assay type: ADME, cell-free
Mus musculus [27] = assay: Neuroprotective activity against Abeta42 induced cognition impairement in AD mouse model assessed as reduction in latency time to platform at 10 mg/kg, po measured after 14 days by Morris water maze analysis; assay type: functional, organism-based; conditions: time 14.0 day
[28] = Ratio of drug exposure in plasma to brain in ICR mouse measured after 20 mins by LC/MS/MS analysis; assay type: ADME, cell-free; conditions: in vivo
[29] = Ratio of drug exposure in plasma to brain in ICR mouse measured after 240 by LC/MS/MS analysis; assay type: ADME, cell-free; conditions: in vivo, 4 h, time 240 min
[30] = Acute toxicity in overnight fasted male ICR mouse assessed as animal death at 1 g/Kg, IG administered as single dose measured upto 15 days; conditions: in vivo, po, 1000 mg/kg, 360 h, time < 15 day
SH-SY5Y [31] = assay: Neuroprotective activity against glutamate induced toxicity in human SH-SY5Y cells assessed as effect on cell survival rate at 10 to 20 uM preincubated for 1 hr with compound followed by co-incubation with glutamate and measured after 24 hrs by MTT assay; assay type: functional, cell-based; conditions: dose 10-20 µM, time 25.0 hrs
[32] = Cmax in Sprague-Dawley rat at 10 mg/kg, iv measured upto 1440 mins by LC/MS/MS analysis; assay type: ADME, organism-based; parameters: dose 10 mg/kg, time < 1440 min, route iv; conditions: Sprague-Dawley, in vivo, read-out: Cmax
[33] = Drug uptake in ICR mouse central nervous system; assay type: ADME, tissue-based; conditions: in vivo
[34] = Metabolic stability in human liver microsomes assessed as half life at 1 uM incubated upto 50 mins in presence of NADPH by LC/MS/MS analysis; assay type: ADME, Microsome
[35] = AUC (0 to t) in Sprague-Dawley rat at 10 mg/kg, iv measured upto 1440 mins by LC/MS/MS analysis; assay type: ADME, organism-based; parameters: time < 1440 min, dose 10 mg/kg, route iv; conditions: Sprague-Dawley, in vivo
[36] = Cytotoxicity against mouse BV-2 cells assessed as inhibition of cell growth measured after 24 hrs by MTT assay; assay type: toxicity, cell-based
[37] = Tmax in Sprague-Dawley rat at 10 mg/kg, po measured upto 1440 mins by LC/MS/MS analysis; assay type: ADME, organism-based; conditions: in vivo
[38] = Cmax in ICR mouse brain administered as oral dose by LC/MS/MS analysis; assay type: ADME, tissue-based; parameters: route po
[39] = Half life in Sprague-Dawley rat at 10 mg/kg, po measured upto 1440 mins by LC/MS/MS analysis; assay type: ADME, organism-based; conditions: in vivo
[40] = Ratio of Cmax in ICR mouse brain to Cmax in ICR mouse plasma; assay type: ADME, cell-free
L02 = assay: Cytotoxicity against human L02 cells assessed as survival rate at 100 uM measured after 24 hrs by MTT assay relative to control; assay type: functional; conditions: read-out: Survival
[41] = Acute toxicity in overnight fasted male ICR mouse assessed as abnormal behavior at 1 g/Kg, IG administered as single dose measured upto 15 days; conditions: in vivo, po, 1000 mg/kg, 360 h, time < 15 day
Mus musculus [42] = assay: Neuroprotective activity against Abeta42 induced cognition impairement in AD ICR mouse model assessed as increase in ghrelin level in mouse brain administered as oral dose for 21 days; assay type: functional, organism-based; conditions: time 21.0 day
[43] = AUC (0 to t) in ICR mouse brain administered as oral dose by LC/MS/MS analysis; assay type: ADME, tissue-based; parameters: route po
Cholinesterase [44] = target: T1, Cholinesterase (Homo sapiens, UniProt P06276); assay: Inhibition of human BuChE using butyrylthiocholine iodide as substrate incubated for 10 mins followed by substrate addition by DTNB-reagent based Ellman's colorimetric assay
T1 sequence (P06276 whole entry): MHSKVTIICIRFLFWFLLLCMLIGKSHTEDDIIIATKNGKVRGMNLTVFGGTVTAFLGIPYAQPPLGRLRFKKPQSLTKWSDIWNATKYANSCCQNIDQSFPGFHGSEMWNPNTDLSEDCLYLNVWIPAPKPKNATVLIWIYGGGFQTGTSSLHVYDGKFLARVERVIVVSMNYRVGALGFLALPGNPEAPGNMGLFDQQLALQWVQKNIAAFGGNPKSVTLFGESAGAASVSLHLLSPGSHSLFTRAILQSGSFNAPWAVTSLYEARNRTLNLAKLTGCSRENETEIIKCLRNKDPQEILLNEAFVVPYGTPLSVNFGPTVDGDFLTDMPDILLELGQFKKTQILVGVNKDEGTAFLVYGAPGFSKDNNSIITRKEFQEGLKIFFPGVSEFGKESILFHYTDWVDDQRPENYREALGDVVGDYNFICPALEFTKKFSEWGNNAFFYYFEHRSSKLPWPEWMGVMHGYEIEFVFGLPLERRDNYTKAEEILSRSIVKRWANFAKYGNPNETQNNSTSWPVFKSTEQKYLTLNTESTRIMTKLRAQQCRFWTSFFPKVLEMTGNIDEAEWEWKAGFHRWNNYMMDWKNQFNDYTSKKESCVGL

Mus musculus [45] = assay: Neuroprotective activity against Abeta42 induced cognition impairement in AD ICR mouse model assessed as increase in body weight at 10 mg/kg measured after 21 days; assay type: functional, organism-based; conditions: time 21.0 day
[46] = Ratio of drug exposure in plasma to brain in ICR mouse measured after 120 mins by LC/MS/MS analysis; assay type: ADME, cell-free; conditions: in vivo, 2 h
[47] = Acute toxicity in overnight fasted female ICR mouse assessed as animal death at 1 g/Kg, IG administered as single dose measured upto 15 days; conditions: in vivo, po, 1000 mg/kg, 360 h, time < 15 day
[48] = Cmax in Sprague-Dawley rat at 10 mg/kg, po measured upto 1440 mins by LC/MS/MS analysis; assay type: ADME, organism-based; parameters: time < 1440 min, dose 10 mg/kg, route po; conditions: in vivo, 24 h
[49] = MRT infinity in Sprague-Dawley rat at 10 mg/kg, po measured upto 1440 mins by LC/MS/MS analysis; assay type: ADME, organism-based; conditions: in vivo
Cholinesterase [50] = target: T1, Cholinesterase; assay: Binding affinity to human BChE assessed as dissociation constant by Surface Plasmon Resonance assay
SH-SY5Y [51] = assay: Cytotoxicity against human SH-SY5Y cells assessed as inhibition of cell growth measured after 24 hrs by MTT assay; assay type: functional, cell-based

N#Cc1cc(Br)cc(NC(=O)Cn2c(-c3nonc3N)nc3ccccc32)c1
Activity (SH-SY5Y [1]): Active
Activity (SH-SY5Y [2]): Active
MRT inf [3]: 14.1 h
Activity (Mus musculus [4]): Active
Ratio [5]: 0.88
AUC(0-t) at 24 h [6]: 628 ng·h/mL
Cmax [7]: 1760 ng/mL
AUC(0-inf) [8]: 1090 ng·h/mL
Activity (BV-2): Active
Ratio [9]: 0.82
viability at 100 µM (PC-12 [10]): 54.6%
Activity (PC-12 [11]): Active
Activity [12]: Non-Toxic
IC50 (Cholinesterase [13]): 0.00015 µM
remaining at 50 min, 1 µM [14]: 89.7%
AUC(0-inf) [15]: 662 ng·h/mL
Activity (SH-SY5Y [16]): Active
viability at 100 µM (SH-SY5Y [17]): 57.8%
Ratio [18]: 0.27
Activity [19]: Non-Toxic
Activity [20]: Non-Toxic
Ratio [21]: 13.33
bioavailability [22]: 73.4%
Activity (Mus musculus [23]): Active
half-life [24]: 8.87 h
AUC(0-t) [25]: 1160 ng·h/mL
Kp [26]: 0.31
Activity (Mus musculus [27]): Active
Ratio [28]: 2.23
Ratio [29]: 0.27
Activity [30]: Non-Toxic
Activity (SH-SY5Y [31]): Active
Cmax [32]: 488 ng/mL
Drug uptake [33]: Active
half-life at 1 µM [34]: 5.75 h
AUC(0-t) at 24 h [35]: 860 ng·h/mL
IC50 at 24 h [36]: 27.8 µM
Tmax [37]: 9.5 min
Cmax [38]: 179 ng/mL
half-life [39]: 5.47 h
Kp [40]: 0.1
viability at 100 µM (L02): 72.4%
Activity [41]: Non-Toxic
Activity (Mus musculus [42]): Active
AUC(0-t) [43]: 356 ng·h/mL
IC50 (Cholinesterase [44]): 0.0452 µM
Activity (Mus musculus [45]): Active
Ratio [46]: 0.54
Activity [47]: Non-Toxic
Cmax [48]: 44.73 ng/mL
MRT inf [49]: 11.6 h

Nc1nonc1-c1nc2ccccc2n1CC(=O)Nc1cc([N+](=O)[O-])cc([N+](=O)[O-])c1
Activity (SH-SY5Y [1]): Active
Activity (SH-SY5Y [2]): Active
Activity (BV-2): Active
viability at 100 µM (PC-12 [10]): 50.8%
Activity (PC-12 [11]): Active
Activity [12]: Non-Toxic
IC50 (Cholinesterase [13]): 0.00294 µM
remaining at 50 min, 1 µM [14]: 92.8%
Activity (SH-SY5Y [16]): Active
Activity [19]: Non-Toxic
Activity [20]: Non-Toxic
Kd (Cholinesterase [50]): 0.00309 µM
Activity (Cholinesterase [50]; dose 0.3125-40 nM): Dose-Dependent Effect
Activity (Mus musculus [23]): Active
Activity (Mus musculus [27]): Active
IC50 (SH-SY5Y [51]): 72.3 µM
Activity [30]: Non-Toxic
Activity (SH-SY5Y [31]): Active
half-life at 1 µM [34]: 11.5 h
IC50 at 24 h [36]: 19.2 µM
viability at 100 µM (L02): 52.4%
Activity [41]: Non-Toxic
IC50 (Cholinesterase [44]): 0.0346 µM
Activity [47]: Non-Toxic
